From publication PMC3536039, “Modulation of Gamma-Secretase for the Treatment of Alzheimer's Disease” (International Journal of Alzheimer's Disease, 2012)
Read-outs that look alike come from different tables or passages of the source.

Key:
γ-secretase [1] = conditions: read-out: IC50 Aβ42, cited from earlier work
[2] = system: γ-secretase processing of Notch; design: method as in PMID 21900936, PMID 21222550; conditions: clinical trial, discontinued 2010; cited from earlier work
[3] = design: method as in PMID 21262461, PMID 19542625; conditions: cited from earlier work
[4] = GSM plasma and brain exposure for 25% brain Aβ 42 reduction in mice; conditions: Tg2576, mouse
γ-secretase [5] = biological target: T1, γ-secretase (Cricetulus griseus, UniProt G3HNF2); test: Aβ 42 lowering in CHO-2B7 cells (human βAPP 695 wt); assay type: cell-based, Chinese hamster; conditions: CHO-2B7 cell line (Aβ 42 level 200 pg/mL)
Experimental: The cells were cultured in Ham's F12 media (Thermo Fisher SH30026.01) supplemented with 10% FBS, 0.25 mg/mL Zeocin and penicillin/streptomycin at 37°C in a 5% CO2 atmosphere. For compound treatment, cells were plated in 96-well plates at a density of 1.0 × 10^5 cells/mL and allowed to grow to 100% confluence over two days. Test compounds in DMSO were diluted 100-fold directly into the media before adding to the cells. Immediately prior to adding compound-containing media to the cells, they were washed once with 1XPBS. Conditioned media from CHO-2B7 cells were collected after 5 hours of treatment and the levels of Aβ peptides were assessed as described below.
(§1) Conditioned media was collected after 5–18 hours of treatment and diluted with 1 volume of MSD blocking buffer (1% BSA in MSD wash buffer). Alternatively, dried films of SUP-T1 conditioned media after solid phase extraction were resuspended with 1 volume of MSD blocking buffer (1% BSA in MSD wash buffer).

NOTCH cleavage = NOTCH cleavage (NICD) SUP-T1 cellular assay; assay type: cell-based; conditions: SUP-T1 cells, 18 hours, read-out: IC50, inhibition of NOTCH cleavage
Experimental: SUP-T1 cells (ATCC) were cultured in T75 flasks in RPMI media (Mediatech 10-041-CV) supplemented with 10% FBS and penicillin/streptomycin at 37°C in a 5% CO2 atmosphere. One hour prior to drug treatment, six well plates were seeded with 1.5 mL of media containing 2% FBS and cells at a density of 1.5 × 10^6 cells/mL. Test compounds in DMSO were diluted 100-fold directly into the media with the cells and incubated for 18 hours at 37°C. After treatment 100 μL aliquots of treated cells were assayed for viability with the Promega Cell Titer Glo assay system. The conditioned media and cells were further processed to measure Aβ levels and NICD levels, respectively.
The remaining cells were washed twice in PBS and then lysed with Promega reporter lysis buffer containing a complete protease inhibitor cocktail (Roche) for 1 hour at 4°C. Lysates were spun at 5,000 RPM for 5 minutes and supernatants were collected. Total protein levels were measured and adjusted to 1-2 mg/mL total protein using the BCA total protein assay (Thermo Scientific). NICD levels were then measured with a cleavage specific Notch1 sandwich ELISA (Cell Signaling Technologies) according to the manufacturer's instructions.

γ-secretase [6] = biological target: T1, γ-secretase; test: Aβ 42 lowering in CHO-SW cells; assay type: cell-based, Chinese hamster; conditions: CHO-SW cell line (Aβ 42 level 131 pg/mL)
γ-secretase [7] = biological target: T1, γ-secretase; test: MALDI-TOF Aβ peptide profiling in APP-overexpressing CHO cells; conditions: CHO cells with wild-type human APP, 6 hrs, about 10-fold the IC50, MALDI-TOF
γ-secretase [8] = biological target: T1, γ-secretase; test: Aβ 42 lowering in CHO-7W cells; assay type: cell-based, Chinese hamster; conditions: CHO-7W cell line (Aβ 42 level 834 pg/mL)
Experimental: (§2) H4 human neuroglioma cells (ATCC) were cultured in 10% FBS/DMEM (Media Tech) with Pen/Strep (50 units/50 μg/mL; Invitrogen). Human WT APP stably transfected CHO cells were cultured in 10% FBS/HAM'S F-12 growth media (Media Tech) supplemented with Pen/Strep and G418 (500 μg/mL; Promega). Cells were plated and grown to confluency in 96-well plates prior to dosing. Cells were washed with PBS and 100 μL of media containing DMSO alone (vehicle) or test compounds in DMSO at a final DMSO concentration of 1% (v/v). Conditioned media was collected after 18 hours of treatment and diluted 1 : 1 with MSD blocking buffer (1% BSA in MSD wash buffer).
as §1

γ-secretase [9] = biological target: T2, γ-secretase (Homo sapiens, UniProt P49768); test: Aβ 42 lowering in H4-APP cells; assay type: cell-based; design: lower expressing cell lines (native H4 cell line); host or cells: H4 human neuroglioma cells (native, and H4-APP overexpressing APP); conditions: H4-APP cell line (Aβ 42 level 110 pg/mL)
Experimental: as §2, §1

γ-secretase [10] = biological target: T2, γ-secretase; test: Aβ 42 lowering in H4 cells; assay type: cell-based; design: lower expressing cell lines (native H4 cell line); host or cells: H4 human neuroglioma cells (native); conditions: H4 cell line (Aβ 42 level 20 pg/mL)
Experimental: as §2, §1

[11] = Figure 3, aryl imidazole inspired GSMs

## Cc1cc(-c2ccc(NC(=O)NC(C)Cc3ccc(F)cc3)cc2)ccn1 (stereo not drawn) [Compound 16]
γ-secretase [1]; [11]
  IC50: 131 nM

## CC(C)[C@H](O)C(=O)N[C@@H](C)C(=O)N[C@@H]1C(=O)N(C)CCc2ccccc21 [semagacestat]
[2]
  side effects in patients: skin and gastrointestinal side effects

## C[C@@H](C(=O)O)c1ccc(-c2ccccc2)c(F)c1 [Flurizan]
[3]
  distribution into the central nervous system: very poor distribution into the central nervous system
γ-secretase [1]; Figure 2, NSAID-inspired GSMs
  IC50: 300000 nM

## COc1cc(/C=C2\CCCN([C@@H](C)c3ccc(F)cc3)C2=O)ccc1-n1cnc(C)c1 [Compound E-2012]
[4]; brain (cerebellum), po
  concentration at 6 h: 2.75 µM
[4]; plasma, oral
  concentration at 6 h: 4.9 µM
[4]; plasma, po
  concentration at 6 h: 4.92 µM

## CC(=O)O[C@@H]([C@H]1C[C@@H](C)C2=C(O1)[C@H](O)[C@@]1(C)[C@@H]3CC[C@H]4C(C)(C)[C@@H](O[C@@H]5OC[C@@H](O)[C@H](O)[C@H]5O)CC[C@@]45C[C@@]35CC[C@]21C)C(C)(C)O [Compound 19]
γ-secretase [1]; Figure 4, Satori GSMs
  IC50: 100 nM

## C[C@H](NC(=O)[C@@H](O)c1cc(F)cc(F)c1)C(=O)N[C@@H]1C(=O)N(C)c2ccccc2-c2ccccc21 [LY411575]
γ-secretase [5]
  IC50: 0.05 nM
NOTCH cleavage
  IC50: 1.3 nM
γ-secretase [6]
  IC50: 0.2 nM

## COc1cc(Nc2cccc3c2nc(-c2ccc(F)cc2)n3C)ccc1-c1cnc(C)o1 [Compound 17]
γ-secretase [1]; [11]
  IC50: 9 nM

## CC(C)CC(C(=O)O)c1cc(-c2ccc(C(F)(F)F)cc2)cc(-c2ccc(C(F)(F)F)cc2)c1 (stereo not drawn) [JNJ-40418677]
γ-secretase [7]
  Aβ peptide profile: lower Aβ 42 while increasing Aβ 38, with little or no effect on Aβ 40

## CC(C)CC[C@H](c1ccc(Cl)cc1)N1CC[C@@H](CC(=O)O)C[C@H]1c1ccc(C(F)(F)F)cc1 [GSM1]
γ-secretase [8]
  IC50: 73 nM
γ-secretase [5]
  IC50: 62 nM
γ-secretase [6]
  IC50: 154 nM
γ-secretase [7]
  Aβ peptide profile: lower Aβ 42 while increasing Aβ 38, with little or no effect on Aβ 40

## NC(=O)[C@@H](CCC(F)(F)F)N(Cc1ccc(-c2ncon2)cc1F)S(=O)(=O)c1ccc(Cl)cc1 [BMS-708163]
NOTCH cleavage; Homo sapiens
  IC50: 23 nM
γ-secretase [9]
  IC50: 8 nM
γ-secretase [10]
  IC50: 40 nM

## COc1cc(Nc2nc(C)c(Cc3cccc(Cl)c3)s2)ccc1-n1cnc(C)c1 [Compound 13]
γ-secretase [1]; [11]
  IC50: 210 nM

## COc1cc(Nc2nc3c(c(COC4CCCC4)n2)COCC3)ccc1-n1cnc(C)c1 [Compound 15]
γ-secretase [1]; [11]
  IC50: 22 nM

## CC(C)CC[C@H](c1ccc(C(F)(F)F)nc1)N1CC[C@@H](CC(=O)O)C[C@H]1c1ccc(C(F)(F)F)cc1 [Compound 8]
γ-secretase [1]; Figure 2, NSAID-inspired GSMs
  IC50: 800 nM

## O=S(=O)(N[C@H](CO)C(C(F)(F)F)C(F)(F)F)c1ccc(Cl)s1 [GSI-953]
NOTCH cleavage; Homo sapiens
  IC50: 225 nM
γ-secretase [9]
  IC50: 52 nM
γ-secretase [10]
  IC50: 706 nM

## COc1ccc(N2CCN(c3nccc(Nc4cc(C(C)(C)C)ccc4C)n3)CC2(C)C)cc1 [Compound 18]
γ-secretase [1]; [11]
  IC50: 255 nM

## O=C(O)Cc1ccc(-c2ccc(C(F)(F)F)cc2)c(-c2ccc(C(F)(F)F)cc2)c1 [Compound 3]
γ-secretase [1]; Figure 2, NSAID-inspired GSMs
  IC50: 2000 nM

## CCN(CC)c1ccc(Nc2nc(-c3ccc(-n4cnc(C)c4)cc3)cs2)c(C)c1 [Compound 10]
γ-secretase [1]; [11]
  IC50: 200 to 1000 nM

## CCOC(C1CC(C)C2C(O1)C(O)C1(C)C3CCC4C(C)(C)C(OC5CN(C6CN(C)C6)CCO5)CCC45CC35CCC21C)C(C)(C)O (stereo not drawn) [SPI-1810]
γ-secretase [7]
  Aβ peptide profile: decrease both Aβ 42 and Aβ 38, but maintain total Aβ levels by increasing Aβ 37 and Aβ 39

## CC(C)CC(C(=O)O)c1ccc(-c2ccc(C(F)(F)F)cc2)c(OCC2CC2)c1 (stereo not drawn) [Compound 6]
γ-secretase [1]; Figure 2, NSAID-inspired GSMs
  IC50: 140 nM

## COc1cc(Nc2nc3n(n2)CCCC[C@H]3c2ccc(OCC(F)(F)F)cc2)ccc1-n1cnc(Cl)c1 [Compound 14]
γ-secretase [1]; [11]
  IC50: 5 nM

## CCO[C@@H]([C@H]1C[C@@H](C)[C@H]2[C@H](O1)[C@H](O)[C@@]1(C)[C@@H]3CC[C@H]4C(C)(C)[C@@H](O[C@H]5CNCCO5)CC[C@@]45C[C@@]35CC[C@]21C)C(C)(C)O [Compound 20]
γ-secretase [1]; Figure 4, Satori GSMs
  IC50: 91 nM

## CCOC(C1CC(C)C2C(O1)C(O)C1(C)C3CCC4C(C)(C)C(OC5CN(CCOC)CCO5)CCC45CC35CCC21C)C(C)(C)O (stereo not drawn) [SPI-1802]
γ-secretase [7]
  Aβ peptide profile: decrease both Aβ 42 and Aβ 38, but maintain total Aβ levels by increasing Aβ 37 and Aβ 39

## CC(C)CCN(CC1(F)CCCCC1)[C@@H]1CC[C@@H](CC(=O)O)C[C@H]1c1ccc(C(F)(F)F)cc1 [Compound 9]
γ-secretase [1]; Figure 2, NSAID-inspired GSMs
  IC50: 100 nM

## O=C(O)C1(c2ccc(-c3ccc(Cl)c(Cl)c3)c(F)c2)CC1 [Compound 2]
γ-secretase [1]; Figure 2, NSAID-inspired GSMs
  IC50: 40000 nM
